Source: patent US9573947B2, “Salt of pyrazoloquinoline derivative, and crystal thereof” (Eisai R&D Management Co., Ltd., priority 2013, dated 2017)

Experiments:
[1] = Dissolution test in fasted state simulated intestinal fluid; format: physicochemical; settings: fasted state simulated intestinal fluid pH 6.5, 37° C., 50 rpm, in terms of compound (I)
Procedure: Each of compound (I) (50 mg), the compound of Example 1 (30 mg) and the compound of Example 2 (30 mg) was filled into a hydroxypropyl methylcellulose capsule, together with an equal weight of lactose hydrate. A 708-DS from Agilent Technologies was equipped with small stirring paddles and small vessels, and used as a dissolution test apparatus. Each drug-filled capsule was added to 50 ml of fasted state simulated intestinal fluid (a phosphate buffer pH 6.5 containing 0.75 mM lecithin and 3 mM sodium taurocholate) which had been warmed to 37° C. The drug was dissolved by rotating the stirring paddle at a speed of 50 rpm. The dissolved solution was sampled over time and the drug concentrations were measured by HPLC. Such dissolution tests using fasted state simulated intestinal fluid are often used to evaluate the dissolution and absorption characteristics of drugs (e.g., Takano et al., “Oral absorption of poorly water-soluble drugs: computer simulation of fraction absorbed in humans from a miniscale dissolution test”, Pharm Res., vol. 23, pp. 1144-1156, 2006). The results were shown in Table 1 and the graph in FIG. 12.

hippocampal cGMP = experiment: Effect on rodent hippocampal cGMP; format: in vivo, LE male rats; settings: LE rats, 10 mg/kg, 1 hour post-administration; relative to vehicle group; compound synthesized according to Reference Example 1
Procedure: Test compounds were administered to SD male rats (CHARLES RIVER LABORATORIES JAPAN, INC.) or LE male rats (Institute for Animal Reproduction (foundation)). Then a microwave treatment was performed under pentobarbital anesthesia, and the hippocampus were isolated, subjected to measurement of their wet weights, then frozen in liquid nitrogen and stored at −80° C. In the measurement of cGMP in the hippocampus, a 0.5 M perchloric acid/1 mM EDTA solution was added so that the wet weight would constitute 5% (w/v), and the mixture was homogenized. After the homogenization, the homogenate was centrifuged (10000 rpm, 15 min), and the supernatant was collected. The collected supernatant was neutralized with a 2 M potassium hydrogen carbonate solution and centrifuged (13000 rpm, 10 min) The cGMP concentration in the supernatant was measured according to the non-acetylation EIA procedure of cGMP EIA kit (GE Healthcare). The results were calculated using the following formula as an increase (C) in the amount of cGMP in the test compound-administered group (B) relative to the amount of cGMP in the vehicle-administered group (A). cGMP increase(C)=[(B)−(A)]/(A)×100(%) In the case of the compound (I) synthesized according to Reference Example 1, the cGMP increase was 58% at 1 hour post-administration of a dose of 10 mg/kg to LE rats.

cerebrospinal fluid cGMP = experiment: Effect on rodent cerebrospinal fluid cGMP; format: in vivo, Long-Evans (LE) male rats; settings: LE rats, 10 mg/kg, 1 hour post-administration; relative to vehicle group; compound synthesized according to Reference Example 1
Procedure: Test compounds were administered to ICR male mice (CHARLES RIVER LABORATORIES JAPAN, INC.), Sprague-Dawley (SD) male rats (CHARLES RIVER LABORATORIES JAPAN, INC.) or Long-Evans (LE) male rats (Institute for Animal Reproduction (general incorporated foundation)), and then cerebrospinal fluid was collected under pentobarbital anesthesia and stored at −20° C. Measurement of cGMP in cerebrospinal fluid was performed according to the acetylation EIA procedure of cGMP EIA kit (GE Healthcare) or the non-acetylation procedure of cGMP EIA kit (Cayman Chemical).

[2] = Test on oral absorption characteristics in dogs; format: in vivo, beagle dogs; settings: oral capsule, 100 mg in terms of the free form; for AREA UNDER PLASMA CONCENTRATION-TIME CURVE, MEAN: mean of 4 beagle dogs

SMILES: COc1ncc(C)c(-c2ccc3c(c2)[nH]c(=O)c2cnn([C@H]4CCOC4)c23)c1C [compound (I), (S)-7-(2-methoxy-3,5-dimethylpyridin-4-yl)-1-(tetrahydrofuran-3-yl)-1H-pyrazolo[4,3-c]quinolin-4(5H)-one]
- CONCENTRATION (dissolution) ([1]; 6 minutes): 100 ng/mL
- CONCENTRATION (dissolution) ([1]; 10 minutes): 300 ng/mL
- CONCENTRATION (dissolution) ([1]; 15 minutes): 1800 ng/mL
- CONCENTRATION (dissolution) ([1]; 20 minutes): 3200 ng/mL
- CONCENTRATION (dissolution) ([1]; 30 minutes): 4400 ng/mL
- CONCENTRATION (dissolution) ([1]; 60 minutes): 5000 ng/mL
- CONCENTRATION (dissolution) ([1]; 90 minutes): 5200 ng/mL
- CONCENTRATION (dissolution) ([1]; 120 minutes): 5100 ng/mL
- CONCENTRATION (dissolution) ([1]; 180 minutes): 5200 ng/mL
- CONCENTRATION (dissolution) ([1]; 240 minutes): 5400 ng/mL
- cGMP increase in hippocampus (hippocampal cGMP): 58%
- cGMP increase in cerebrospinal fluid (cerebrospinal fluid cGMP): 274%
- PLASMA CONCENTRATION ([2]; Dog 1, 0.25 hours): BQL
- PLASMA CONCENTRATION ([2]; Dog 1, 0.5 hours): 5 ng/mL
- PLASMA CONCENTRATION ([2]; Dog 1, 1 hour): 55 ng/mL
- PLASMA CONCENTRATION ([2]; Dog 1, 2 hours): 94 ng/mL
- PLASMA CONCENTRATION ([2]; Dog 1, 4 hours): 64 ng/mL
- PLASMA CONCENTRATION ([2]; Dog 1, 6 hours): 45 ng/mL
- PLASMA CONCENTRATION ([2]; Dog 1, 8 hours): 43 ng/mL
- PLASMA CONCENTRATION ([2]; Dog 1, 24 hours): 234 ng/mL
- AREA UNDER PLASMA CONCENTRATION-TIME CURVE ([2]; Dog 1): 2660 ng·h/mL
- PLASMA CONCENTRATION ([2]; Dog 2, 0.25 hours): BQL
- PLASMA CONCENTRATION ([2]; Dog 2, 0.5 hours): 29 ng/mL
- PLASMA CONCENTRATION ([2]; Dog 2, 1 hour): 67 ng/mL
- PLASMA CONCENTRATION ([2]; Dog 2, 2 hours): 61 ng/mL
- PLASMA CONCENTRATION ([2]; Dog 2, 4 hours): 51 ng/mL
- PLASMA CONCENTRATION ([2]; Dog 2, 6 hours): 45 ng/mL
- PLASMA CONCENTRATION ([2]; Dog 2, 8 hours): 41 ng/mL
- PLASMA CONCENTRATION ([2]; Dog 2, 24 hours): 7 ng/mL
- AREA UNDER PLASMA CONCENTRATION-TIME CURVE ([2]; Dog 2): 770 ng·h/mL
- PLASMA CONCENTRATION ([2]; Dog 3, 0.25 hours): BQL
- PLASMA CONCENTRATION ([2]; Dog 3, 0.5 hours): 34 ng/mL
- PLASMA CONCENTRATION ([2]; Dog 3, 1 hour): 142 ng/mL
- PLASMA CONCENTRATION ([2]; Dog 3, 2 hours): 133 ng/mL
- PLASMA CONCENTRATION ([2]; Dog 3, 4 hours): 104 ng/mL
- PLASMA CONCENTRATION ([2]; Dog 3, 6 hours): 77 ng/mL
- PLASMA CONCENTRATION ([2]; Dog 3, 24 hours): 9 ng/mL
- AREA UNDER PLASMA CONCENTRATION-TIME CURVE ([2]; Dog 3): 1430 ng·h/mL
- PLASMA CONCENTRATION ([2]; Dog 4, 0.25 hours): BQL
- PLASMA CONCENTRATION ([2]; Dog 4, 0.5 hours): BQL
- PLASMA CONCENTRATION ([2]; Dog 4, 1 hour): 17 ng/mL
- PLASMA CONCENTRATION ([2]; Dog 4, 24 hours): 28 ng/mL
- AREA UNDER PLASMA CONCENTRATION-TIME CURVE ([2]; Dog 4): 2680 ng·h/mL
- concentration at 8 h ([2]; beagle, dog, plasma, po, 100 mg, Dog 3, 8 hours): 74 ng/mL
- concentration at 2 h ([2]; beagle, dog, plasma, po, 100 mg, Dog 4, 2 hours): 227 ng/mL
- concentration at 4 h ([2]; beagle, dog, plasma, po, 100 mg, Dog 4, 4 hours): 208 ng/mL
- concentration at 6 h ([2]; beagle, dog, plasma, po, 100 mg, Dog 4, 6 hours): 164 ng/mL
- concentration at 8 h ([2]; beagle, dog, plasma, po, 100 mg, Dog 4, 8 hours): 151 ng/mL
- concentration at 24 h ([2]; beagle, dog, plasma, po, 100 mg, mean of dogs, 24 hours): 69 ng/mL
- AREA UNDER PLASMA CONCENTRATION-TIME CURVE, MEAN [2]: 1880 ± 950 ng·h/mL
- AREA UNDER PLASMA CONCENTRATION-TIME CURVE, MEAN ([2]; listed as COMPOUND (I)): 1880 ng·h/mL
- PLASMA CONCENTRATION MEAN ([2]; mean of dogs, 0.5 hours): 23 ng/mL
- PLASMA CONCENTRATION MEAN ([2]; mean of dogs, 1 hour): 70 ng/mL
- PLASMA CONCENTRATION MEAN ([2]; mean of dogs, 2 hours): 129 ng/mL
- PLASMA CONCENTRATION MEAN ([2]; mean of dogs, 4 hours): 106 ng/mL
- PLASMA CONCENTRATION MEAN ([2]; mean of dogs, 6 hours): 83 ng/mL
- PLASMA CONCENTRATION MEAN ([2]; mean of dogs, 8 hours): 77 ng/mL
